Results reported in patent publication US20250049776A1, “AUTOPHAGY INDUCING COMPOUNDS AND USES THEREOF, IN PARTICULAR FOR A SYSTEMIC TREATMENT OF DISEASES AND CONDITIONS” (Samsara Therapeutics Inc., priority 2021, published 2025).
Structures can show the parent of a compound that is named as a salt.

Test system: C3-PMP22 transgenic mice (B6.Cg-Tg(PMP22)C3Fbas/J)
Assay: Mouse model of Charcot-Marie-Tooth 1A (CMT1A)
Type: in vivo
Source text: Compound 163 was selected as an example compound of this invention to be evaluated in this model. This model (run by In vivex SAS, France) uses C3-PMP22 transgenic mice (B6·Cg-Tg(PMP22)C3Fbas/J) which express three copies of a wild-type human peripheral myelin protein 22 (PMP22) gene. These mice present an age-dependent demyelinating neuropathy characterized by predominantly distal loss of strength and sensation. C3-PMP mice show no overt clinical signs at 3 weeks and develop mild neuromuscular impairment in an age-dependent manner. They have stable, low nerve conduction velocities similar to adults with human CMT1A. Myelination is delayed in these mice, and they contain reduced numbers of myelinated fibres at 3 weeks of age.
• Animal characteristics: • Sex/Species/Strain: B6.Cg-Tg(PMP22)C3Fbas/JMale • Age: 3 weeks old • Supplier: Jackson Laboratory (USA) • Approximate weight at initiation of treatment: 19.0 g±2.5 g • Animal number: 6 mice per group • Animal identification: At the beginning of the study, animals were identified with a number on the tail. […] Clinical signs and mortality were recorded daily. Body weight was determined twice a week. • Study Outline: • Dose: 30 mg/kg • Administration: Oral gavage • Readouts: • i) Rotarod (neuromuscular performance) • ii) Sciatic nerve electrophysiology (EMG) • iii) PMP22 analysis by western blot • iv) Histology of sciatic nerve • Experimental time duration: Readouts measures at 1 and 2 months old. • Baseline rotarod and EMG readouts at 1 month old • Rotarod and EMG readouts at 2 months old • Western blot for PMP22 and histopathology of sciatic nerve at 2 months old • Vehicle used for test Compound 163: 10% DMSO/5% Cremophor R H 40 and 85% of 10% HP-β-CD in water (v/v) • Vehicle control group: vehicle only (non-treated control) • Statistics: Statistical analyses were performed using Prism software. A probability less than 5% (p<0.05) was considered as significant.
Sciatic nerve electrophysiology. Electromyography was performed on mice anesthetized with ketamine/xylazine mixture. A pair of steel needle electrodes (AD Instruments, MLA1302) were placed subcutaneously along the nerve at the sciatic notch (proximal stimulation). A second pair of electrodes were placed along the tibial nerve above the ankle (distal stimulation). Supramaximal square-wave pulses, lasting 10 ms at 1 mA were delivered using a PowerLab 26T (AD Instruments). Compound muscle action potential (CMAP) was recorded from the intrinsic foot muscles using steel electrodes. Both amplitudes and latencies of CMAP were determined. The distance between the 2 sites of stimulation was measured alongside the skin surface with fully extended legs, and nerve conduction velocities (NCVs) were calculated automatically from sciatic nerve latency measurements using Excel.
Rotarod. A rotating rod apparatus (Bioseb, France) was used to measure neuromuscular coordination and balance. Mice were first given a pretraining trial to familiarize them with the rotating rod. […] Each animal underwent 3 trials a day. For each day, values from the 3 trials were averaged for each animal, and then averaged for each group.
After electrophysiology analysis and animal sacrifice, the left sciatic nerve of all animals were sampled, solubilized in 4° C. RIPA lysis buffer completed with protease inhibitors (Fisher Scientific, France), sonicated three times during 10 s on ice (Microson ultrasonic cell disruptorXL, Microsonic) and centrifuged for 30 min at 10,000 rpm at 4° C. 50 μL of the supernatant was sampled and total protein was quantified by NanoDrop using bovine serum albumin dilutions as standard. Then, ten micrograms of protein samples were denatured using Laemmli/β-mercaptoethanol (Merck, S3401) incubation at 95° C. during 10 minutes, separated on a denaturing 10% SDS-polyacrylamide gel and transferred onto nitrocellulose membranes. Membranes were blocked for 60 min with 5 mL of Licor Blocking Buffer. […]

[1] = CMT1A mice at 2 months old, 30 mg/kg oral gavage twice a day during one month
[2] = sciatic nerve histology, CMT1A mice at 2 months old, 30 mg/kg oral gavage twice a day

SMILES: CC(C)N(C(=O)c1csc(-c2cnn(-c3ccccc3)c2)n1)C1CCNCC1 [Compound 163, N-isopropyl-2-(1-phenyl-1H-pyrazol-4-yl)-N-(piperidin-4-yl)thiazole-4-carboxamide hydrochloride]
- increase in CMAP amplitude compared to the vehicle group [1]: 86%
- increase in mean rotarod latency compared to the vehicle group [1]: 133%
- increase in NCV compared to the vehicle group (CMT1A mice at 2 months old, 30 mg/kg oral gavage twice a day, not statistically significant): 94%
- differences on body weight between groups (CMT1A mice, 30 mg/kg oral gavage twice a day): No significant differences
- decrease in the g-ratio compared to the vehicle group [2]: 22%
- increase in the number of myelinating axons compared to the vehicle group [2]: 64%
- increase in the axonal diameter compared to the vehicle group (sciatic nerve histology, CMT1A mice at 2 months old, 30 mg/kg oral gavage twice a day, not statistically significant): 45%
- decrease in the level of PMP22 compared to the vehicle group (sciatic nerve western blot, CMT1A mice at 2 months old, 30 mg/kg oral gavage twice a day): 33%
